pIC50: −log10 of the molar value.
These compounds were tested against T1, cellular PARG (Homo sapiens, UniProt Q86W56) (assay: Nuclear PAR accumulation assay (immunofluorescence high-content imaging, MMS-treated HeLa cells)). Conditions: 1 hour compound then MMS 50 μg/mL for an additional hour.
T1 construct: endogenous in cells; host or cells: HeLa
Assay type: cell-based
Description: HeLa cells were plated at 15,000 cells/well in a 96-well plate the day before compound treatment and then treated with varying concentrations of test compound and incubated for 1 hour at 37° C.+5% CO2. Following test compound treatment, methylmethane sulfonate (MMS) was added to a final concentration of 50 μg/mL and the cells were incubated for an additional hour. Following treatment, the cells were fixed with ice cold 95% methanol and the plates sealed and placed at -20° C. for 15 minutes. The cells were then washed once with phosphate buffered saline (PBS) and permeabilized with 0.10% Triton-X 100 for 20 minutes at room temperature. […] The cells were then washed three times with PBS before incubation with a fluorescently conjugated goat anti-mouse antibody (Invitrogen A32723) diluted 1:500 in 5% FBS+0.1% Tween-20+PBS for 1 hour at room temperature. The cells were again washed three times with PBS and the nuclei labeled by incubating with 1 μg/mL DAPI (4′,6-diamidino-2-phenylindole). Nuclear PAR accumulation was evaluated using high-content fluorescence microscopy. Four fields for each well were acquired at 20× magnification resulting in at least 1,000 cells analyzed per well. […] Both the average intensity per nucleus and percent PAR positive cells were quantified. […] Concentration-response-curves and IC50 values were generated using four parameter logistic curve fit software.
Representative data for exemplary compounds is presented in Table 32, Table 33 and Table 34.

T1 sequence (Q86W56 whole entry): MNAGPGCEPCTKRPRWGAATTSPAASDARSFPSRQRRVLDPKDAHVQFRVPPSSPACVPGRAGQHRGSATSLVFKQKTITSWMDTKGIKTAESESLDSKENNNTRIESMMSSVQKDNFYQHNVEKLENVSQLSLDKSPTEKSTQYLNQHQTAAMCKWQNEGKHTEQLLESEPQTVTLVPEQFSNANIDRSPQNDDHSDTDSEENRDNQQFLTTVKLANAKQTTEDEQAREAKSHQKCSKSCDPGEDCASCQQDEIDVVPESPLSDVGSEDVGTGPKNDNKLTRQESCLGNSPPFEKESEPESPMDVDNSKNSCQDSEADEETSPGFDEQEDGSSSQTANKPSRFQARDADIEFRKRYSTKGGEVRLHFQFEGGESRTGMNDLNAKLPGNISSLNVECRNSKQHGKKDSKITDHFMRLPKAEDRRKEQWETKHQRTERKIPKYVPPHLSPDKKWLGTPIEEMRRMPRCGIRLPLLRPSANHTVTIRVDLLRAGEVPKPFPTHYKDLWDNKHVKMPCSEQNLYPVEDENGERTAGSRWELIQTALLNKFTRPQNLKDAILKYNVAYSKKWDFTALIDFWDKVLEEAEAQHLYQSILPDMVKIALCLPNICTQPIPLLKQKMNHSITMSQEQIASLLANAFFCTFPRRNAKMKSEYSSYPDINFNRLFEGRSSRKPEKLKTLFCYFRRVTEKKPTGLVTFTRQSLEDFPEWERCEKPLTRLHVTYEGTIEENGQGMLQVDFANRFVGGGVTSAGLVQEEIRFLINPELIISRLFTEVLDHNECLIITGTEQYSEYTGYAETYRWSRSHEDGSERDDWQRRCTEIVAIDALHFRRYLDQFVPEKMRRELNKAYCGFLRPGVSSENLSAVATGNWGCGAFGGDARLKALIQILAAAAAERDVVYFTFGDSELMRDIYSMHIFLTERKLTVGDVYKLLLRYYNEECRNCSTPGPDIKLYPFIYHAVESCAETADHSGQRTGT

| pIC50 | SMILES |
| --- | --- |
| > 7.00 | C#CC1(C)CN=C2N(Cc3cnn(C)c3)C(=O)c3cc(S(=O)(=O)NC4(C)CC4)ccc3N21 (single isomer, unassigned) [Example 271, 1-ethynyl-1-methyl-4-((1-methyl-1H-pyrazol-4-yl)methyl)-N-(1-methylcyclopropyl)-5-oxo-1,2,4,5-tetrahydroimidazo[1,2-a]quinazoline-7-sulfonamide] |
| > 7.00 | Cn1cc(CN2C(=O)c3cc(S(=O)(=O)NC4(C)CC4)ccc3N3C2=NC[C@H]3C#Cc2cnccn2)cn1 [Example 77, (R)-4-((1-methyl-1H-pyrazol-4-yl)methyl)-N-(1-methylcyclopropyl)-5-oxo-1-(pyrazin-2-ylethynyl)-1,2,4,5-tetrahydroimidazo[1,2-a]quinazoline-7-sulfonamide] |
| > 7.00 | [2H]C([2H])(c1cnn(C)c1)N1C(=O)c2cc(S(=O)(=O)NC3(C)CC3)ccc2N2C1=NC[C@H]2C#Cc1cncnc1OC [Example 262, (R)-1-((4-methoxypyrimidin-5-yl)ethynyl)-4-((1-methyl-1H-pyrazol-4-yl)methyl-d2)-N-(1-methylcyclopropyl)-5-oxo-1,2,4,5-tetrahydroimidazo[1,2-a]quinazoline-7-sulfonamide] |
| > 7.00 | C#C[C@@H]1CN=C2N(Cc3cnn4c3CNCC4)C(=O)c3cc(S(=O)(=O)NC4(C)CC4)cc(Cl)c3N21 [Example 297, (R)-9-chloro-1-ethynyl-N-(1-methylcyclopropyl)-5-oxo-4-((4,5,6,7-tetrahydropyrazolo[1,5-a]pyrazin-3-yl)methyl)-1,2,4,5-tetrahydroimidazo[1,2-a]quinazoline-7-sulfonamide] |
| > 7.00 | [2H]C([2H])(c1cnn(C)c1)N1C(=O)c2cc(S(=O)(=O)NC3(C)CC3)ccc2N2C1=NC[C@H]2C#Cc1cn(C)nc1F [Example 101, (R)-1-((3-fluoro-1-methyl-1H-pyrazol-4-yl)ethynyl)-4-((1-methyl-1H-pyrazol-4-yl)methyl-d2)-N-(1-methylcyclopropyl)-5-oxo-1,2,4,5-tetrahydroimidazo[1,2-a]quinazoline-7-sulfonamide] |
| 6.00 to 7.00 | C[C@@H]1CN=C2N(CC(F)F)C(=O)c3cc(S(=O)(=O)NC4(C)CC4)ccc3N21 [Example 139, (R)-4-(2,2-difluoroethyl)-1-methyl-N-(1-methylcyclopropyl)-5-oxo-1,2,4,5-tetrahydroimidazo[1,2-a]quinazoline-7-sulfonamide] |
| 5.00 to 6.00 | [2H]C([2H])(c1cnn(C)c1)N1C(=O)c2cc(S(=O)(=O)NC3(C)CC3)ccc2N2C1=N[C@@H]1C[C@@H](N)C[C@@H]12 [Example 283, (7aR,9R,10aS)-9-amino-6-((1-methyl-1H-pyrazol-4-yl)methyl-d2)-N-(1-methylcyclopropyl)-5-oxo-6,7a,8,9,10,10a-hexahydro-5H-cyclopenta[4,5]imidazo[1,2-a]quinazoline-3-sulfonamide] |
| 6.00 to 7.00 | CC1(NS(=O)(=O)c2ccc3c(c2)C(=O)N(Cc2cnn4c2CNCC4)C2=N[C@H]4CCC[C@H]4N23)CC1 [Example 290, (7aS,10aR)-N-(1-methylcyclopropyl)-5-oxo-6-((4,5,6,7-tetrahydropyrazolo[1,5-a]pyrazin-3-yl)methyl)-6,7a,8,9,10,10a-hexahydro-5H-cyclopenta[4,5]imidazo[1,2-a]quinazoline-3-sulfonamide] |
| > 7.00 | Cn1cc(CN2C(=O)c3cc(S(=O)(=O)NC4(C)CC4)cc(-c4ccc(F)cc4)c3N3CC(C)(C)N=C23)cn1 [Example 17, 9-(4-fluorophenyl)-2,2-dimethyl-4-((1-methyl-1H-pyrazol-4-yl)methyl)-N-(1-methylcyclopropyl)-5-oxo-1,2,4,5-tetrahydroimidazo[1,2-a]quinazoline-7-sulfonamide] |
| > 7.00 | [2H]C([2H])(c1cnn(C)c1)N1C(=O)c2cc(S(=O)(=O)NC3(C)CC3)c(NCC#Cc3cncnc3)cc2N2C1=N[C@H]1CCC[C@H]12 [Example 287, (7aS,10aR)-6-((1-methyl-1H-pyrazol-4-yl)methyl-d2)-N-(1-methylcyclopropyl)-5-oxo-2-((3-(pyrimidin-5-yl)prop-2-yn-1-yl)amino)-6,7a,8,9,10,10a-hexahydro-5H-cyclopenta[4,5]imidazo[1,2-a]quinazoline-3-sulfonamide] |
| 6.00 to 7.00 | Cc1nnc(N2C3=NC[C@@H](C)N3c3ccc(S(=O)(=O)NC4(C)CC4)cc32)s1 [Example 84, (R)-3-methyl-9-(5-methyl-1,3,4-thiadiazol-2-yl)-N-(1-methylcyclopropyl)-2,9-dihydro-3H-benzo[d]imidazo[1,2-a]imidazole-7-sulfonamide] |
| > 7.00 | CN1C(=O)c2cc(S(=O)(=O)NC3(C)CC3)ccc2N2C1=NC[C@H]2C#Cc1cnc2ccc(C(F)(F)F)nn12 [Example 201, (R)-4-methyl-N-(1-methylcyclopropyl)-5-oxo-1-((6-(trifluoromethyl)imidazo[1,2-b]pyridazin-3-yl)ethynyl)-1,2,4,5-tetrahydroimidazo[1,2-a]quinazoline-7-sulfonamide] |
| > 7.00 | Cc1cc([C@@H]2CN=C3N(Cc4cnn(C)c4)C(=O)c4cc(S(=O)(=O)NC5(C)CC5)ccc4N32)on1 [Example 107, (S)-4-((1-methyl-1H-pyrazol-4-yl)methyl)-N-(1-methylcyclopropyl)-1-(3-methylisoxazol-5-yl)-5-oxo-1,2,4,5-tetrahydroimidazo[1,2-a]quinazoline-7-sulfonamide] |
| 6.00 to 7.00 | CN1C(=O)c2cc(S(=O)(=O)NC3(C)CC3)cc(C3=CCN(C(=O)C4CC4)CC3)c2N2CC(C)(C)N=C12 [Example 59, 9-(1-(cyclopropanecarbonyl)-1,2,3,6-tetrahydropyridin-4-yl)-2,2,4-trimethyl-N-(1-methylcyclopropyl)-5-oxo-1,2,4,5-tetrahydroimidazo[1,2-a]quinazoline-7-sulfonamide] |
| 6.00 to 7.00 | [2H]C([2H])(c1cnn(C)c1)N1C(=O)c2cc(S(=O)(=O)NC3(C)CC3)cc(Br)c2N2C1=NC[C@@H]2C#CC1CC1 [Example 95, (S)-9-bromo-1-(cyclopropylethynyl)-4-((1-methyl-1H-pyrazol-4-yl)methyl-d2)-N-(1-methylcyclopropyl)-5-oxo-1,2,4,5-tetrahydroimidazo[1,2-a]quinazoline-7-sulfonamide] |
| 6.00 to 7.00 | Cn1cc(CN2C(=O)c3cc(S(=O)(=O)NC4(C)CC4)ccc3N3C2=NCC3COc2ccccc2C#N)cn1 (centres unmarked) [Example 137, 1-((2-cyanophenoxy)methyl)-4-((1-methyl-1H-pyrazol-4-yl)methyl)-N-(1-methylcyclopropyl)-5-oxo-1,2,4,5-tetrahydroimidazo[1,2-a]quinazoline-7-sulfonamide] |
| 5.00 to 6.00 | [2H]C([2H])(c1cnn(C)c1)N1C(=O)c2cc(S(=O)(=O)NC3(CO)CC3)ccc2N2C1=NC[C@H]2C [Example 237, (R)-N-(1-(hydroxymethyl)cyclopropyl)-1-methyl-4-((1-methyl-1H-pyrazol-4-yl)methyl-d2)-5-oxo-1,2,4,5-tetrahydroimidazo[1,2-a]quinazoline-7-sulfonamide] |
| > 7.00 | CCN1C(=O)c2cc(S(=O)(=O)NC3(C)CC3)ccc2N2C1=NC[C@H]2C#Cc1cnc2cccnn12 [Example 189, (R)-4-ethyl-1-(imidazo[1,2-b]pyridazin-3-ylethynyl)-N-(1-methylcyclopropyl)-5-oxo-1,2,4,5-tetrahydroimidazo[1,2-a]quinazoline-7-sulfonamide] |
| > 7.00 | COc1ccc2ncc(C#C[C@@H]3CN=C4N(C)C(=O)c5cc(S(=O)(=O)NC6(C)CC6)ccc5N43)n2n1 [Example 181, (R)-1-((6-methoxyimidazo[1,2-b]pyridazin-3-yl)ethynyl)-4-methyl-N-(1-methylcyclopropyl)-5-oxo-1,2,4,5-tetrahydroimidazo[1,2-a]quinazoline-7-sulfonamide] |
| > 7.00 | [2H]C([2H])(c1cnn(C)c1)N1C(=O)c2cc(S(=O)(=O)NC3(C)CC3)ccc2N2C1=NC[C@H]2C#CC1(N(C)CCO)CC1 [Example 244, (R)-1-((1-((2-hydroxyethyl)(methyl)amino)cyclopropyl)ethynyl)-4-((1-methyl-1H-pyrazol-4-yl)methyl-d2)-N-(1-methylcyclopropyl)-5-oxo-1,2,4,5-tetrahydroimidazo[1,2-a]quinazoline-7-sulfonamide] |
| > 7.00 | Cn1cc(CN2C(=O)c3cc(S(=O)(=O)NC4(C)CC4)ccc3N3C2=NC[C@H]3C#Cc2nccn2C)cn1 [Example 83, (R)-1-((1-methyl-1H-imidazol-2-yl)ethynyl)-4-((1-methyl-1H-pyrazol-4-yl)methyl)-N-(1-methylcyclopropyl)-5-oxo-1,2,4,5-tetrahydroimidazo[1,2-a]quinazoline-7-sulfonamide] |
| > 7.00 | [2H]C([2H])(c1cnn(C)c1)N1C(=O)c2cc(S(=O)(=O)NC3(C)CC3)cc(Cl)c2N2C1=NC[C@H]2C#C [Example 111, (R)-9-chloro-1-ethynyl-4-((1-methyl-1H-pyrazol-4-yl)methyl-d2)-N-(1-methylcyclopropyl)-5-oxo-1,2,4,5-tetrahydroimidazo[1,2-a]quinazoline-7-sulfonamide] |
| > 7.00 | C[C@@H]1CN=C2N(Cc3ccc(C#N)nc3)C(=O)c3cc(S(=O)(=O)NC4(C)CC4)ccc3N21 [Example 233, (R)-4-((6-cyanopyridin-3-yl)methyl)-1-methyl-N-(1-methylcyclopropyl)-5-oxo-1,2,4,5-tetrahydroimidazo[1,2-a]quinazoline-7-sulfonamide] |
